From PMC8891364, “Synthesis, and docking studies of novel heterocycles incorporating the indazolylthiazole moiety as antimicrobial and anticancer agents” (Scientific Reports, 2022)
In brackets after ≈: the same amount, converted by molar mass. Several values for one entry are separate records, joined by “and”; a condition that tells them apart may be missing. Equal values may be shown once.

What was measured:
Pseudomonas aeruginosa = test: Microbial-biofilm inhibition, tissue-culture plate technique (TCP); assay type: cell-based; conditions: 25 µg/mL, 24 h
Experimental: (§1) The activity of the newly synthesized compounds against microbial biofilm formation was estimated through the tissue-culture plate technique (TCP) as follows: the three above-mentioned pathogens, Streptococcus mutans, Pseudomonas aeruginosa, and Candida albicans were cultivated overnight in LB broth at 37 °C. Afterward, 200 µL of each diluted organism (10^6 CFU/mL) was inoculated separately (in triplicate) into 96-well tissue culture plates and incubated overnight at 37 °C. The free planktonic cells were removed, after the incubation period, by flipping the plate and washing each well three times with phosphate-buffered-saline (PBS), pH 7.1. To each well, 175 µL of fresh LB broth was added along with 25 µL of the tested compound (25 µg/mL final concentrations). The plates were reincubated at 37 °C for another 24 h, washed with PBS buffer pH 7.1 three times, and dried for 5 min at 50 °C. The formed biofilm was stained with crystal violet solution (0.1% w/v) for 5 min. The excess stain was decanted, and the stained biofilm was solubilized with 200 µL of glacial acetic acid (30% v/v), where the developed blue color was measured at 590 nm. The results are expressed as relative inhibition (%) compared to untreated groups (control). Controls were prepared by culturing the three pathogens on LB medium without any tested compounds.

Streptococcus mutans = test: as above; assay type: cell-based; conditions: 25 µg/mL, 24 h
Experimental: as §1

Caco-2 cells [1] = test: MTT antitumor assay, colon carcinoma cells; assay type: cell-based; conditions: for IC50: Homo sapiens, Caco-2, 48 h; for SI Caco-2: ratio of IC50 of normal cells (HFB-4) versus IC50 of tumor cells
Experimental: (§2) The human melanocytes (HFB-4) cells, hepatoma (HepG-2) cells, and colon carcinoma (Caco-2) cells were obtained from American Type Culture Collection (ATCC, USA). The cytotoxicity of the newly synthesized compounds (at various concentrations) was determined using the 3-[4, 5-dimethylthiazol]-2, 5-diphenyltetrazolium bromide method (MTT assay)[59] against HFB-4 cells (normal human melanocytes), HepG-2 cells (hepatoma), and Caco-2 cells (colon carcinoma). Normal and cancer cells (1.0 × 10^4) were cultured in sterile 96-well microplates, and incubated for 24 h in DMEM (Lonza, USA) supplemented with 10% fetal bovine serum (Gibco, USA) for HFB-4 and Caco-2 cells or in an RPMI-1640 medium (Lonza, USA) supplemented with 10% FBS for HepG-2 cells. After 24 h of incubation, different doses of the tested synthesized compounds ([…]) were added in triplicate to all cells and incubated for another 48 h in 5% CO2. After washing the cells 3 times with fresh media, to remove dead cells and debris, a solution of MTT (Sigma -Aldrich, 0.5 mg/mL) was added to each well and further incubated for 2–5 h at 37 °C. Afterward, the MTT solution was decanted and 200 µL of DMSO was added. The optical density was measured at 570 nm using a microplate reader (BMG LabTech, Germany), where the cells’ relative viability (%) was estimated using the following equation: viability of cells (%) = [A1 − A0/AU − A0] × 100, where A1 is the absorbance of the test compound, A0 is the absorbance of the blank, and AU is the absorbance of untreated cells (control).
(§3) The antitumor activity of the synthesized compound was determined by calculating the IC50 value (half maximal inhibitory concentration) using Graph Pad Prism 6.0 software. The value of IC50 indicates the derivative concentration that causes 50% cell death, whereas the value of the selectivity index (SI), indicating the ratio of the IC50 value of normal cells versus the IC50 value of tumor cells, was also included as reported by[60],[61].

HepG-2 cells = test: MTT antitumor assay, hepatoma cells; assay type: cell-based, human; conditions: for IC50: Homo sapiens, HepG2, 48 h; for SI HepG-2: ratio of IC50 of normal cells (HFB-4) versus IC50 of tumor cells
Experimental: as §2, §3

[2] = test system: Candida albicans ATCC 10231; test: Antimicrobial microtiter-plate MIC assay; assay type: cell-based; conditions: Candida albicans, ATCC10231; 24 h, 37 °C
Experimental: (§4) The antimicrobial activity of the newly synthesized compounds (2–9) was evaluated against three model pathogenic microorganisms as follows: Streptococcus mutans ATCC 25175 (Gram-positive bacterium); Pseudomonas aeruginosa ATCC 27853 (Gram-negative bacterium); and Candida albicans ATCC 10231 (fungi-like unicellular organism). After cultivating the three tested pathogens overnight in LB broth, 100 µL of each tested organism (10^6 CFU/mL) was added separately to 100 µL of the serially diluted test compounds (5–80 µg) in a 96-well tissue culture plate and incubated at 37 °C for 24 h. Eventually, microbial growth was measured at 600 nm, and the results are presented in the form of MIC (Table 4). Two antibacterial reference drugs, ampicillin and ciprofloxacin, and one antifungal drug, clotrimazole, were incorporated into the experiments.

[3] = test system: Pseudomonas aeruginosa ATCC 27853; test: Antimicrobial microtiter-plate MIC assay; assay type: cell-based; conditions: Pseudomonas aeruginosa, ATCC27853; 24 h, 37 °C
Experimental: as §4

[4] = test system: Streptococcus mutans ATCC 25175; test: Antimicrobial microtiter-plate MIC assay; assay type: cell-based; conditions: Streptococcus mutans, ATCC25175, 24 h, read-out: MIC Streptococcus mutant
Experimental: as §4

Caco-2 cells [5] = test: Cell cycle arrest analysis by flow cytometry; assay type: cell-based, human; conditions: 48 h, IC50 concentrations, vs untreated control
Experimental: The cell cycle arrest of treated Caco-2 cells was evaluated through flow cytometry (Partec, Germany) in comparison with untreated cells and treated cells with 5-FU as a positive control[60],[62]. […] After washing the cells three times, the cells were fixed by adding 1 mL of 70% cold ethanol dropwise with a gentle vortex. Caco-2 cells were washed three times again with cold PBS and incubated in 1 mL of PBS containing 5 μg/mL RNase A (Sigma-Aldrich) for 1 h at 37 °C. Then 10 μL of PI (Sigma-Aldrich) was added to cells at a final concentration of 1 mg/mL in deionized water and left at 4 °C until analysis in the dark. The cell cycle of Caco-2 cells before and after treatment was analyzed by FACS using Cell Quist and Mod Fit software by reading at 488 nm.

VEGF gene = test: qRT-PCR gene expression in HepG-2 and Caco-2 cells; assay type: cell-based, human; conditions: IC50 concentrations, 2 days, compared to 5-FU and untreated cells
Experimental: (§5) The effects of the potent antitumor derivatives (4, 6, and 8) on the expression level of some tumor regulating genes were elucidated through quantitative real-time PCR (qRT- PCR) and compared to 5-fluorouracil (5-FU) as a reference antitumor drug. Five genes were assessed, including the tumor oncogene (Bcl-2), tumor suppressor gene (p53), matrix metalloproteinase gene (MMP-9), vascular endothelial growth factor gene (VEGF), and beta-catenin protein gene (β-catenin), in HepG-2 and Caco-2 cells, before and after treatment for 2 days with IC50 concentrations for compounds 4, 6, and 8. Following the extraction of total RNA from the tested cells, using the Gene JET RNA Purification Kit (Thermo Scientific, USA), cDNA synthesis was performed according to the cDNA Synthesis Kit protocol (Thermo Scientific, USA). qRT PCR was performed using the SYBR green kit and specific primers (Forward/Reverse) as follows: 5′-[…]-3'/5'-TCG GTCTCCTAAAAGCAGGC-3′ for the Bcl-2 gene, 5′-TAACAGTTCCTGCATG GG CG GC-3′/5′-[…]-3′ for p53, 5'-CTGCGTATTTCCATT CATC-3'/5'-CCTTGGGTCAGGTTTAGAG-3' for the MMP-9 gene, 5'-GGCTTTACT GCTGTACCTCC-3'/5'-CAAATGCTTTCTCCGCTCT-3' for the VEGF gene, and 5'-CATATGCGGCTGCTG TTCTA-3'/5'-CCGAAAG CCGTTTCTTGTAG-3' for the β-catenin gene. The upregulation and/or downregulation of the expression of the tested genes in Caco-2 and HepG-2 cells was determined by using the equation 2^−ΔΔCT[60].

β-catenin gene = test: qRT-PCR gene expression in HepG-2 and Caco-2 cells; assay type: cell-based, human; conditions: IC50 concentrations, 2 days
Experimental: as §5

MMP-9 gene = test: qRT-PCR gene expression in HepG-2 and Caco-2 cells; assay type: cell-based, human; conditions: IC50 concentrations, 2 days, compared to 5-FU and untreated cells
Experimental: as §5

Bcl-2 gene = test: qRT-PCR gene expression in HepG-2 and Caco-2 cells; assay type: cell-based, human; conditions: for gene expression of Bcl-2: HepG-2 and Caco-2 cells, IC50 concentrations, 2 days, compared to 5-FU and untreated cells; for downregulation of Bcl-2 expression, fold: compared to control cells
Experimental: as §5

HFB-4 cells = test: MTT cytotoxicity assay, normal human melanocytes; assay type: cell-based; conditions: Melanocyte, 48 h
Experimental: as §2, §3

Candida albicans = test: Microbial-biofilm inhibition, tissue-culture plate technique (TCP); assay type: cell-based; conditions: Candida albicans, 24 h, relative to untreated
Experimental: as §1

| Compound | antibiofilm formation activity Streptococcus mutans (in words) (Streptococcus mutans) | IC50 (Caco-2 cells [1]; MTT, 48 h) [µg/mL] | SI Caco-2 (Caco-2 cells [1]) | IC50 (HepG-2 cells; MTT, 48 h) [µg/mL] | SI HepG-2 (HepG-2 cells) | MIC [2] [µg/mL] | MIC [3] [µg/mL] | MIC [4] [µg/mL] | apoptotic phase (sub-G1) population (Caco-2 cells [5]) | synthesis (S) phase population (Caco-2 cells [5]) | gene expression of VEGF (VEGF gene) | expression of the β-catenin gene (β-catenin gene) | gene expression of MMP-9 (MMP-9 gene) | gene expression of Bcl-2 (Bcl-2 gene) | downregulation of Bcl-2 expression, fold (Bcl-2 gene) | IC50 (HFB-4 cells) [µg/mL] | also measured |
| --- | --- | --- | --- | --- | --- | --- | --- | --- | --- | --- | --- | --- | --- | --- | --- | --- | --- |
| N#Cc1c(N)oc2nc(N3NC4=C(CCCC4)C3c3ccccc3)sc12 (centres unmarked) [Compound 4, 5-amino-2-(3-phenyl-1,3,4,5,6,7-hexahydro-2H-indazol-2-yl)furo[2,3-d] thiazole-6-carbonitrile] | had antibiofilm formation activities | 6.18 ± 1.14 (≈ 17 µM) | 23 and 23.03 ± 0.24 | 7.88 ± 0.1 (≈ 21.7 µM) | 18.1 and 18.06 ± 0.19 | 48.9 ± 1.05 (≈ 135 µM) | 60.8 ± 2.22 (≈ 167 µM) | 34.41 ± 0.237 (≈ 94.7 µM) | becomes detectable after treatment | decreased | significantly downregulated | significantly suppressed | significantly downregulated | significantly downregulated | more than threefold | 142 ± 1.48 (≈ 392 µM) | biofilm inhibition activity Pseudomonas aeruginosa (in words) (Pseudomonas aeruginosa): high biofilm inhibition activity |
| NNC(=O)c1c(N)sc2sc(N3NC4=C(CCCC4)C3c3ccccc3)nc12 (centres unmarked) [Compound 6, 5-amino-2-(3-phenyl-1,3,4,5,6,7-hexahydro-2H-indazol-2-yl)thieno[3,2-d] thiazole-6-carbohydrazide] | – | 5.21 ± 0.22 (≈ 12.6 µM) | 25.6 and 25.59 ± 0.03 | 6.12 ± 0.19 (≈ 14.8 µM) | 21.8 and 21.75 ± 0.03 | 57.3 ± 1.32 (≈ 139 µM) | 58.5 ± 2.27 (≈ 142 µM) | 39.58 ± 0.348 (≈ 95.9 µM) | becomes detectable after treatment | decreased | significantly downregulated | significantly suppressed | significantly downregulated | significantly downregulated | more than threefold | 133 ± 4.18 (≈ 323 µM) | inhibition at 25 µg/mL (Candida albicans): 61% |
| N#CCc1nn(N)c2nc(N3NC4=C(CCCC4)C3c3ccccc3)sc12 (centres unmarked) [Compound 8, 2-(1-amino-5-(3-phenyl-1,3,4,5,6,7-hexahydro-2H-indazol-2-yl)-1H-pyrazolo [3,4-d]thiazol-3-yl)acetonitrile] | had antibiofilm formation activities | ~5.9 (≈ 15.6 µM) | 26.08 ± 0.30 | ~5.9 (≈ 15.6 µM) | 26.23 ± 0.30 | 56.2 ± 1.24 (≈ 149 µM) | 53 ± 2.18 (≈ 141 µM) | 15.8 ± 0.205 (≈ 41.8 µM) | becomes detectable after treatment | decreased | significantly downregulated | significantly suppressed | significantly downregulated | significantly downregulated | more than threefold | 154 ± 1.76 (≈ 407 µM) | IC50 Caco-2 (Caco-2 cells [1]; MTT, 48 h): 5.89 ± 0.38 µg/mL (≈ 15.6 µM); SI Caco-2 (Caco-2 cells [1]; listed as Derivative 8): about 26; IC50 HepG-2 (HepG-2 cells; MTT, 48 h): 5.86 ± 0.34 µg/mL (≈ 15.5 µM); SI HepG-2 (HepG-2 cells; listed as Derivative 8): about 26 |
